Columns and labels:
Format in all cases: cell-based, human
[1] = tested on: luciferase reporter under the control of a methylated CMV promoter in leukemia KG-1 cells; assay: CMV-luc reexpression (luciferase reporter) in KG-1 cells; details: for Reactivation fold of luciferase gene reporter in KG-1 CMV-Luc: 24 hour incubation, fold induction vs DMSO, mean ± standard error
Protocol: Aiming at identifying new DNMT inhibitors, plant extract samples were tested for their ability to reactivate gene expression upon use of an integrated luciferase reporter system under the control of a methylated CMV promoter in leukemia KG-1 cells which inhibits its expression (CMV-luc assay reported in following Table). […] The extract was fractionated by preparative HPLC. Identification of the active components was accomplished by HRMS and NMR spectroscopy. The pure compounds isolated from the extract through bio-guided fractionation are trilobine and bisbenzylisoquinoline analogue products. The active compounds were then further evaluated for their ability to inhibit DNMTs in vitro and DNA methylation in cancer cells.
KG-1 cells were stably transfected with the firefly luciferase reporter gene (luc+ from pGL3; Promega) under the control of the cytomegalovirus (CMV) promoter (from pEGFP-N1; Clontech Laboratories Inc.) partially methylated (50%). 20,000 cells per well were seeded in a 96-well plate. After 24 hour incubation in the presence of the test compound or solvant (DMSO), the induction of the promoter was measured by quantification of the luciferase signal with the Brite-lite assay system (PerkinElmer) according to the manufacturer's protocol. The luminescence was measured on an EnVision multilabel plate reader (PerkinElmer), and the data are expressed as the fold induction as compared with the DMSO control. The mean of three experiments and the standard error is reported.

[2] = tested on: P16 promoter in colon cancer cells HCT116; assay: P16 (CDKN2A) promoter demethylation, COBRA; details: at 0.1 μM
Protocol: (§1) Cancer cell lines (colon HCT116 or leukaemia KG1) were treated with the compounds as indicated in the Data Tables and then analysed as following.
(§2) DNA was isolated from cultured cells using the DNeasy Blood and Tissue Kit according to the manufacturer's specifications (Qiagen). DNA bisulphite conversion was performed on 2 μg of DNA using the EZ DNA Methylation-Gold Kit according to the manufacturer's specifications (Zymo Research) and bisulfited DNA was eluted with 10 μL of water. Two different techniques were used to analyse the DNA methylation profile after bisulfite conversion of genomic DNA: (A) cloning and sequencing or (B) COBRA. The primers for each promoter are specified in the Table 3.
This technique is a variation of bisulfite sequencing, and combines bisulfite conversion based polymerase chain reaction with restriction digestion. DNA methylation levels are easily and quickly measured without the need for laborious and costing more time sub-cloning and sequencing, as with bisulfite sequencing.
DNA amplification was set up with 100 ng eluted bisulfited DNA in 50 μl PCR reaction containing 1×PCR buffer, 2.5 mM MgCl2, 0.3 mM dNTPs, 400 nM each primer and 1.25 units EpiTaq HS (Takara) on C1000 Touch™ thermal cycler by 98° C. for 10 sec, 55° C. for 30 sec, 72° C. for 30 sec×40 cycles. 20 μL of PCR amplicons were digested in 30 μL by 2 units of BsiEI at 60° C. for 90 min. DNA fragments were migrated by 2% agarose gel electrophoresis and each band was quantified by Image Lab Software v2.0 (BioRad Laboratories).

[3] = tested on: P15 promoter in leukaemia KG1 cells; assay: P15 (CDKN2B) promoter demethylation, bisulfite PCR cloning-sequencing; details: after 3 days, at 0.32 μM
Protocol: as §1, §2
Sequencing of bisulfite-treated DNA allowing resolution of the methylation state of every cytosine in the target sequence, at single molecule resolution, is considered as the “gold standard” for DNA methylation analysis.
Bisulfite-specific primers with a minimum length of 18 bp were designed using Primer 3 program. […]
PCR amplicons were cloned with the StrataClone Ultra Blunt PCR Cloning Kit (Agilent Technologies), according to the manufacturers' instructions and up to 24 clones were picked for sequencing. […] Electrophoregram files and methylation signals at a given CpG site were quantified using the BISMA software as described in the literature (Rohde et al. BMC Bioinformatics 2010, 11, 230).

Question: With `COc1ccc2cc1Oc1ccc(cc1)C[C@@H]1NCCc3cc(OC)c4c(c31)Oc1cc3c(cc1O4)CCN(C)[C@H]3C2` [Compound 1, Trilobine] as the compound, how does the “Reactivation fold of luciferase gene reporter in KG-1 CMV-Luc” value (from here on “Reactivation fold”) ([1]; 0.1 μM) read?
Answer: Its value is 1.1 ± 0.1 fold.

Question: And the “Reactivation fold” value ([1]; 0.32 μM)?
Answer: The value was 1.9 ± 1.2 fold.

Question: What about the “Reactivation fold” value ([1]; 0.5 μM) of the same compound?
Answer: The value was 1.6 ± 0.8 fold.

Question: What about the “Reactivation fold” value ([1]; 1 μM) of the same compound?
Answer: The value was 2.6 ± 1.4 fold.

Question: And the “Reactivation fold” value ([1]; 3.2 μM)?
Answer: The value was 3.5 ± 1.1 fold.

Question: And the “Reactivation fold” value ([1]; 5 μM)?
Answer: Its value is 6.4 ± 0.1 fold.

Question: What about the “FI-24 h, KG1 CMV-Luc model” value ([1]; at 5 μM, 24 h) of the same compound?
Answer: The value was 5.8 ± 0.6.

Question: What about the “Demethylation (COBRA) P16/HCT116” value ([2]; after 3 days) of the same compound?
Answer: Its value is −37% after 3 days.

Question: What about the “Demethylation (COBRA) P16/HCT116” value ([2]; after 7 days) of the same compound?
Answer: The value was −52% after 7 days.

Question: What about the “Demethylation (COBRA) P16/HCT116” value ([2]; after 21 days) of the same compound?
Answer: The value was −53% after 21 days.

Question: And the “Demethylation (COBRA) P15/KG1” value [3]?
Answer: Its value is −25% after 3 days.

— US10517863B2, “Trilobine and its natural analogs for use as a drug” (PIERRE FABRE MEDICAMENT, priority 2015, dated 2019)
